Laboratory results published in patent publication US11759791B2, “Jet milling method” (VECTURA LIMITED, priority 2015, dated 2023).

Assay: Particle size analysis (wet analysis), Malvern Mastersizer 3000 Hydro MV
Assay type: physicochemical
Settings: unmicronised / as supplied, wet analysis method
Experimental: […] The pump speed was set to 3000 rpm. […] The dispersed particles were added to the dispersion unit to reach an obscuration of 5-15%. The optical properties used included a refractive index of 1.52 and an absorption value of 1.0 for the glycopyrrolate, and a refractive index of 1.45 and an absorption value of 1.0 for the magnesium stearate and a refractive index of 1.391 for the iso-octane. Six replicates were performed per measurement.

| Compound | D10 particle size of source powder | D50 particle size of source powder | D90 particle size of source powder |
| --- | --- | --- | --- |
| C[N+]1(C)CCC(OC(=O)C(O)(c2ccccc2)C2CCCC2)C1 (stereo not drawn) [Unmicronised glycopyrrolate, glycopyrrolate] | 20.6 μm | 148.7 μm | 409.7 μm |
| magnesium stearate | 2.8 μm | 8.8 μm | 27.4 μm |
